Results from patent publication US4599352A, “Antineoplastic platinum (IV) complexes and compositions” (priority 1984, dated 1986).

Legend:
IP L1210 = experiment: Activity against IP-implanted L1210 leukemia sensitive to cisplatin, 60 day test (Table 4); format: in vivo, Female CD2Fl mice
Description: (§1) Biological properties of the compounds of the present invention were determined following the protocol described in Cancer Chemotherapy Reports, Vol. 3, No. 3, 1972 which report is incorporated herein by reference.
(§2) Other known mechanisms of resistance for other classes of agents, such as gene amplification or target enzyme change or amplication, also need to be explored. The experiments summarized in Table 3 were conducted at the same time against both sublines using the same drug preparations. […] These experiments were repeated in a second laboratory as documented in Table 4. However, in these experiments the animals were held for 60 rather than 30 days to evaluate whether or not long-term survivors are produced after drug treatment in a more challenging setting.
(§3) This experiment (A8-00005 3LE31) was conducted at the Southern Research Institute, Birmingham, Ala. under the supervision of Dr. Daniel Griswold. The protocols were the same as those published previously (Geran et al., Cancer Chemotherapy Reports 3: No. 2, 1972 [Attachment 11]). 10^5 cells were implanted intraperitoneally in CD2Fl male mice on Day 0. Drug treatments were given intraperitoneally as single injections at the doses indicated on Days 1, 5 and 9 after tumor implantation. The diluent was saline except for NSC-271674 where 5% sodium bicarbonate was used. All drugs were prepared fresh on the day of injection, and all were administered in solution. Median survival times for both control and drug-treated mice were determined and expressed as a percentage (% T/C). Body weights were determined on Day 5 and expressed as a weight difference (body weight of the drug-treated animals minus that of the control animals in grams) (T-C). The diluent control animals lived a median of 8.4 days and gained 1.9 grams by Day 5 in this experiment. All animals, including Day 30 survivors, were used in the calculation of median survival times. The log10 change in tumor burden refers to the net log change in viable tumor cell population at the end of therapy (Rx) as compared to the start of therapy; e.g., a […] means that there was a […] and a 3 log change means there was a 1000-fold increase in tumor burden at the end of therapy. The tumor burden at the start of therapy was about 6.1×10^5 cells in this experiment.
(§4) These experiments (23-00081 3LE31 and 23-00003 3DP3l) were conducted concurrently at the Mason Research Institute, Worcester, MA under the supervision of Dr. William Cobb. See Table 4 for experimental details. The diluent control animals bearing L1210 leukemia lived a median of 8.3 days and gained 1.6 grams by Day 5. […] Female CD2Fl mice were used for these experiments.

[1] = system: IP-Implanted L1210 Leukemia; experiment: Dose-response against IP-implanted L1210 leukemia, IP treatment Days 1, 5 and 9, 30-day test (Table 2); format: in vivo, CD2Fl male mice; conditions: for Optimal dose (dose producing best therapeutic response): day 1, 5 and 9 schedule
Description: as §1, §3

IP L1210/Cisplatin = experiment: Activity against IP-implanted L1210/Cisplatin leukemia resistant to cisplatin, 60 day test (Table 4); format: in vivo, Female CD2Fl mice
Description: as §1
as §2, with “setting. […]” for “setting.”
as §4

[2] = system: L1210 and L1210/Cisplatin leukemia; experiment: Total number of long-term survivors in Tables 2-4; format: in vivo, CD2Fl mice; conditions: for Total number of long-term survivors: Tables 2-4 summed
Text: If one summarizes the data in Tables 2-4 by totalling the number of long-term survivors, unexpected differences among the isomers become apparent. For example, the trans l compound produced 30 long-term survivors.

## [Cl][Pt-2]1([Cl])([Cl])([Cl])[NH2+][C@H]2CCCC[C@@H]2[NH2+]1 [trans (d), (1S, 2S)-Tetrachloro-trans-1,2-cyclohexanediamine platinum (IV)]
IP L1210; 1 mg/kg/dose
  60 Day Survivors/Total: 0/10
  Body Weight Difference: -0.6 Grams
  Median % T/C: 144%
IP L1210; 2 mg/kg/dose
  60 Day Survivors/Total: 3/10
  Body Weight Difference: -1.0 Grams
  Median % T/C: 216%
IP L1210; 4 mg/kg/dose
  60 Day Survivors/Total: 0/10
  Body Weight Difference: -1.2 Grams
  Median % T/C: 202%
IP L1210; 8 mg/kg/dose
  60 Day Survivors/Total: 3/10
  Body Weight Difference: -3.1 Grams
  Median % T/C: 301%
IP L1210; 16 mg/kg/dose
  60 Day Survivors/Total: 0/10
  Body Weight Difference: -7.0 Grams
  Median % T/C: Toxic
[1]; 1 mg/kg/dose IP
  30-Day Survivors/Total: 0/6
  Body Weight Difference: -0.3 Grams
  Median % T/C: 119%
[1]; 2 mg/kg/dose IP
  30-Day Survivors/Total: 0/6
  Approx. Log10 Change in Tumor Burden at End of Rx: ~2.7 log10
  Body Weight Difference: -0.6 Grams
  Median % T/C: 134%
[1]; 4 mg/kg/dose IP
  30-Day Survivors/Total: 1/6
  Approx. Log10 Change in Tumor Burden at End of Rx: ~-1.1 log10
  Body Weight Difference: -0.9 Grams
  Median % T/C: 211%
[1]; 8 mg/kg/dose IP
  30-Day Survivors/Total: 3/6
  Approx. Log10 Change in Tumor Burden at End of Rx: ~-5.7 log10
  Body Weight Difference: -1.7 Grams
  Median % T/C: 357%
[1]; 8 mg/kg/dose IP, listed as trans d
  Body Weight Difference: less than -4 Grams
[1]; 16 mg/kg/dose IP
  30-Day Survivors/Total: 1/6
  Approx. Log10 Change in Tumor Burden at End of Rx: ~-2.0 log10
  Body Weight Difference: -4.9 Grams
  Median % T/C: 226%
[1]
  Optimal dose (dose producing best therapeutic response): 8 mg/kg/injection
IP L1210/Cisplatin; 1 mg/kg/dose
  60 Day Survivors/Total: 0/10
  Body Weight Difference: -0.4 Grams
  Median % T/C: 125%
IP L1210/Cisplatin; 2 mg/kg/dose
  60 Day Survivors/Total: 0/10
  Body Weight Difference: -0.2 Grams
  Median % T/C: 147%
IP L1210/Cisplatin; 4 mg/kg/dose
  60 Day Survivors/Total: 6/10
  Body Weight Difference: -1.4 Grams
  Median % T/C: 645%
IP L1210/Cisplatin; 8 mg/kg/dose
  60 Day Survivors/Total: 1/10
  Body Weight Difference: -4.8 Grams
  Median % T/C: 193%
IP L1210/Cisplatin; 16 mg/kg/dose
  60 Day Survivors/Total: 0/10
  Body Weight Difference: -6.1 Grams
  Median % T/C: Toxic
[2]
  Total number of long-term survivors: 27

## Tetrachloro-cis-1,2-cyclohexanediamine platinum (IV)
IP L1210; 2 mg/kg/dose
  60 Day Survivors/Total: 0/10
  Body Weight Difference: -0.9 Grams
  Median % T/C: 143%
IP L1210; 4 mg/kg/dose
  60 Day Survivors/Total: 2/10
  Body Weight Difference: -0.9 Grams
  Median % T/C: 250%
IP L1210; 8 mg/kg/dose
  60 Day Survivors/Total: 2/10
  Median % T/C: 313%
IP L1210; 16 mg/kg/dose
  60 Day Survivors/Total: 0/10
  Body Weight Difference: -5.6 Grams
  Median % T/C: 98%
IP L1210; 32 mg/kg/dose
  60 Day Survivors/Total: 0/10
  Body Weight Difference: -5.6 Grams
  Median % T/C: Toxic
[1]; 1 mg/kg/dose IP
  30-Day Survivors/Total: 0/6
  Approx. Log10 Change in Tumor Burden at End of Rx: ~2.8 log10
  Body Weight Difference: -0.8 Grams
  Median % T/C: 128%
[1]; 2 mg/kg/dose IP
  30-Day Survivors/Total: 0/6
  Approx. Log10 Change in Tumor Burden at End of Rx: ~2.6 log10
  Body Weight Difference: -1.3 Grams
  Median % T/C: 140%
[1]; 4 mg/kg/dose IP
  30-Day Survivors/Total: 0/6
  Approx. Log10 Change in Tumor Burden at End of Rx: ~2.4 log10
  Body Weight Difference: -1.1 Grams
  Median % T/C: 152%
[1]; 8 mg/kg/dose IP
  30-Day Survivors/Total: 0/6
  Approx. Log10 Change in Tumor Burden at End of Rx: ~-0.7 log10
  Body Weight Difference: -1.8 Grams
  Median % T/C: 205%
[1]; 16 mg/kg/dose IP
  30-Day Survivors/Total: 2/6
  Approx. Log10 Change in Tumor Burden at End of Rx: ~-5.7 log10
  Body Weight Difference: -3.6 Grams
  Median % T/C: 333%
[1]; 16 mg/kg/dose IP, listed as cis
  Body Weight Difference: less than -4 Grams
[1]
  Optimal dose (dose producing best therapeutic response): 16 mg/kg/injection
IP L1210/Cisplatin; 2 mg/kg/dose
  60 Day Survivors/Total: 0/10
  Body Weight Difference: -0.3 Grams
  Median % T/C: 121%
IP L1210/Cisplatin; 4 mg/kg/dose
  60 Day Survivors/Total: 0/10
  Body Weight Difference: 0.0 Grams
  Median % T/C: 130%
IP L1210/Cisplatin; 8 mg/kg/dose
  60 Day Survivors/Total: 1/10
  Body Weight Difference: -2.7 Grams
  Median % T/C: 191%
IP L1210/Cisplatin; 16 mg/kg/dose
  60 Day Survivors/Total: 0/10
  Body Weight Difference: -5.4 Grams
  Median % T/C: Toxic
IP L1210/Cisplatin; 32 mg/kg/dose
  60 Day Survivors/Total: 0/10
  Body Weight Difference: -5.1 Grams
  Median % T/C: Toxic
IP L1210/Cisplatin; L1210/cisplatin, tolerated doses
  60-day (long term) survivors: only one long term survivor
[2]
  Total number of long-term survivors: 13
[2]; mouse, in vivo
  Relative biological activity: relatively lower biological activity

## [Cl][Pt]1([Cl])([Cl])([Cl])[NH]C2CCCCC2[NH]1 (stereo not drawn) [trans (d, l), (d,l)-Tetrachloro-trans-1,2-cyclohexanediamine platinum (IV)]
IP L1210; 1 mg/kg/dose
  60 Day Survivors/Total: 0/10
  Body Weight Difference: -0.8 Grams
  Median % T/C: 144%
IP L1210; 2 mg/kg/dose
  60 Day Survivors/Total: 0/10
  Body Weight Difference: -1.2 Grams
  Median % T/C: 180%
IP L1210; 4 mg/kg/dose
  60 Day Survivors/Total: 0/10
  Body Weight Difference: -1.5 Grams
  Median % T/C: 274%
IP L1210; 8 mg/kg/dose
  60 Day Survivors/Total: 3/10
  Body Weight Difference: -3.2 Grams
  Median % T/C: 178%
IP L1210; 16 mg/kg/dose
  60 Day Survivors/Total: 0/10
  Body Weight Difference: -5.9 Grams
  Median % T/C: 89%
[1]; 1 mg/kg/dose IP
  30-Day Survivors/Total: 0/6
  Approx. Log10 Change in Tumor Burden at End of Rx: ~2.9 log10
  Body Weight Difference: -0.5 Grams
  Median % T/C: 122%
[1]; 2 mg/kg/dose IP
  30-Day Survivors/Total: 0/6
  Approx. Log10 Change in Tumor Burden at End of Rx: ~2.5 log10
  Body Weight Difference: -1.5 Grams
  Median % T/C: 146%
[1]; 4 mg/kg/dose IP
  30-Day Survivors/Total: 1/6
  Approx. Log10 Change in Tumor Burden at End of Rx: ~-0.5 log10
  Body Weight Difference: -1.5 Grams
  Median % T/C: 202%
[1]; 8 mg/kg/dose IP
  30-Day Survivors/Total: 4/6
  Approx. Log10 Change in Tumor Burden at End of Rx: ~-5.7 log10
  Body Weight Difference: -1.2 Grams
  Median % T/C: 357%
[1]; 8 mg/kg/dose IP, listed as trans dl
  Body Weight Difference: less than -4 Grams
[1]; 16 mg/kg/dose IP
  30-Day Survivors/Total: 1/6
  Approx. Log10 Change in Tumor Burden at End of Rx: ~2.6 log10
  Body Weight Difference: -4.6 Grams
  Median % T/C: 142%
[1]
  Optimal dose (dose producing best therapeutic response): 8 mg/kg/injection
IP L1210/Cisplatin; 1 mg/kg/dose
  60 Day Survivors/Total: 0/10
  Body Weight Difference: -0.6 Grams
  Median % T/C: 129%
IP L1210/Cisplatin; 2 mg/kg/dose
  60 Day Survivors/Total: 1/10
  Body Weight Difference: -0.8 Grams
  Median % T/C: 139%
IP L1210/Cisplatin; 4 mg/kg/dose
  60 Day Survivors/Total: 4/10
  Body Weight Difference: -1.2 Grams
  Median % T/C: 451%
IP L1210/Cisplatin; 8 mg/kg/dose
  60 Day Survivors/Total: 0/10
  Body Weight Difference: -4.0 Grams
  Median % T/C: 236%
IP L1210/Cisplatin; 16 mg/kg/dose
  60 Day Survivors/Total: 0/10
  Body Weight Difference: -6.3 Grams
  Median % T/C: Toxic
[2]
  Total number of long-term survivors: 27
